In US20050222076A1, “Composition for cell proliferation” (OTSUKA PHARMACEUTICAL CO., LTD., priority 2002, published 2005):

System: human keratinocyte
Assay: In vitro cultured human keratinocyte cell proliferation promoting effect (WST-1)
Format: cell-based
Conditions: primary-cultured human keratinocyte, cultured two days; AMP 0-1 w/v % combined with UMP 0.000001-0.1 w/v %; versus comparative sample without uridine monophosphate disodium set as 1; FIG. 1
Experimental: Primary-cultured human keratinocyte (manufactured by Kurabo Industries, Ltd.) was cultured in a 10-cm petri dish, and the cultured cells were collected in the subconfluent state and then stored in a frozen state. The following experiments were conducted using those cryopreserved cells.
1. The cryopreserved cells were dissolved in HuMediaKG2 liquid culture media (manufactured by Kurabo Industries, Ltd.), the cell concentration was adjusted to […]. 50 μl of thus obtained cells-containing solution was poured into each well of a test plate to adjust the cell concentration to 2500 cells/50 μl/well.
2. […]
3. […] The test samples contained solutions at various concentrations prepared by blending uridine monophosphate disodium to adenosine monophosphate disodium solutions in which the concentration of adenosine monophosphate contained in the 300 μl of the test sample was adjusted to 0, 0.0001, 0.001, 0.01, 0.1, and 1 W/V %, so that the concentration of uridine monophosphate disodium was adjusted to 0, 0.000001 (1E-06), 0.00001 (1E-05), 0.0001, 0.001, 0.01 and 0.1 w/v % as calculated based on the concentration of the uridine monophosphate.
4. Two days after culture initiation, the proliferation of human keratinocyte cells was measured using a WST-1 reagent (manufactured by TaKaRa) based on the rise in absorbance. […]

| Compound | cell proliferation promoting effect of adenosine monophosphate disodium when blended with uridine monophosphate disodium (relative ratio of number of cells, ratio of cont.) |
| --- | --- |
| O=c1ccn([C@@H]2O[C@H](COP(=O)([O-])[O-])[C@@H](O)[C@H]2O)c(=O)[nH]1.[Na+].[Na+] [uridine monophosphate disodium] | potentiated and promoted |
| Nc1ncnc2c1ncn2[C@@H]1O[C@H](COP(=O)([O-])[O-])[C@@H](O)[C@H]1O.[Na+].[Na+] [adenosine monophosphate disodium] | potentiated and promoted |
